# Source: patent US10500164B2, “Nanoparticle-based combinatorial therapy” (The American University in Cairo, priority 2014, dated 2019)
# Assay: In-vitro drug release of DOX in Tris-HCl buffer pH 5 and PBS pH 7.4
# Type: physicochemical
# Conditions: free DOX solution control, over 4 hrs
# Description: FIGS. 7A-B show according to an exemplary embodiment of the invention in-vitro release of free DOX, and DOX-NCs in Tris-HCl buffer pH 5 (FIG. 7A) and PBS pH 7.4 (FIG. 7B).
# Since the release behavior of DOX-NCs at the desired site is of a great importance for formulating an ideal cancer-targeted drug delivery system, in-vitro release studies were performed at two different pH values were tested: pH 7.4, which mimics the pH of the blood stream and pH 5, which mimics the pH of the endosomes within cancer cells. In-vitro results […] that DOX-AgNCs, DOX-Ag/PVA NCs, DOX-Ag/PEG NCs and DOX-Ag/PVP NCs released 96.6%, 97.4%, 98% and 96.4% of DOX at pH 5. While at pH 7.4, the release percentages of DOX were 73.4%, 54.3%, 59.8% and 68.5% over the course of 6 hrs. […] In-vitro release is shown of free DOX, and DOX-NCs in Tris-HCl buffer pH 5 (FIG. 7A) and PBS pH 7.4 (FIG. 7B).
compound,measurement,setting,value
"COc1cccc2c1C(=O)c1c(O)c3c(c(O)c1C2=O)C[C@@](O)(C(=O)CO)C[C@@H]3O[C@H]1C[C@H](N)[C@H](O)[C@H](C)O1 [free DOX, Doxorubicin]",release percentage of DOX,pH 5,97.4%
same,release percentage of DOX,pH 7.4,67.7%
